Assay results from patent US20220056043A1, “NITROGEN-CONTAINING FUSED CYCLIC COMPOUND, PREPARATION METHOD THEREFOR AND USE THEREOF” (SICHUAN KELUN-BIOTECH BIOPHARMACEUTICAL CO., LTD., priority 2019, published 2022).
Counter-ions that a name gives are not always drawn.

How the values were obtained:
hTLR8 = target: T1, hTLR8 (Homo sapiens, UniProt Q9NR97); assay: Agonistic effect on hTLR8, HEK-Blue hTLR8 cells, alkaline phosphatase secretion; type: cell-based; conditions: 16 hours
T1 construct: host or cells: HEK-Blue hTLR8 cells
T1 sequence (Q9NR97 27-1041): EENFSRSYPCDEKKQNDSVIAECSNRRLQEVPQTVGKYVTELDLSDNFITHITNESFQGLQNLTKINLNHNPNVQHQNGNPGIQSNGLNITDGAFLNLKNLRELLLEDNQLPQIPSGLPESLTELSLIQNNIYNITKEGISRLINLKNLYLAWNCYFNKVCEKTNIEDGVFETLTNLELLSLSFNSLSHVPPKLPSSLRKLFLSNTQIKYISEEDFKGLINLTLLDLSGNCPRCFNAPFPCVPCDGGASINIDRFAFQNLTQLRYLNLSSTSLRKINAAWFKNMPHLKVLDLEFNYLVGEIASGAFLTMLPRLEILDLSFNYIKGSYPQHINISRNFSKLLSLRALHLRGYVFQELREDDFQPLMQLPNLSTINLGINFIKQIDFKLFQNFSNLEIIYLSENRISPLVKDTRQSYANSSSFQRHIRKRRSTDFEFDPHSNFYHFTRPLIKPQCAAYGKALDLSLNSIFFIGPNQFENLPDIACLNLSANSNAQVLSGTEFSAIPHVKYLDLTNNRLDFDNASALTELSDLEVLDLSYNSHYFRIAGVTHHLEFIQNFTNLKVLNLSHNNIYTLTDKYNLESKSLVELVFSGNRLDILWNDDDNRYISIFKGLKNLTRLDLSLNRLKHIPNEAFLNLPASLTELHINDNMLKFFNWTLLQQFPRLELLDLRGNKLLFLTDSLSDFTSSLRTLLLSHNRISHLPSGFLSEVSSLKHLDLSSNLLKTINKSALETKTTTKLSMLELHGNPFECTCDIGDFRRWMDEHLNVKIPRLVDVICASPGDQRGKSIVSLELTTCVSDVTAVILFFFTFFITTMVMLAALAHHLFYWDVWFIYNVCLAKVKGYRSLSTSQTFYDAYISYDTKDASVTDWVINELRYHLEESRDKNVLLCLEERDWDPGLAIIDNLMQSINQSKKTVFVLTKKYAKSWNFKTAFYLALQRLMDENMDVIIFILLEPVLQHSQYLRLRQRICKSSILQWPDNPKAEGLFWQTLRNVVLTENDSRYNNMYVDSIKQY
Procedure: Experimental Example 4: Agonistic Effect of the Compound of the Invention on hTLR8
In this test, the secretion of alkaline phosphatase in HEK-Blue cells was measured to test the activating effect of the compound of the invention on TLR8 signaling pathway, so as to evaluate the specificity of the agonistic effect of the compound on NLRP3 pathway.
Reagents: DMEM (High glucose); FBS (fetal bovine serum) (Gibco); QUANTI-Blue/InvivoGen/rep-qb2
Cells: HEK-Blue™ hTLR8 cells (human TLR 8 cells) (InvivoGen) Experimental Procedures:
1) The HEK-Blue™ hTLR8 cells in a logarithmic growth phase were trypsinized and resuspended in the medium to a concentration of 2×10^6 cells/mL. 50 μL/well of the cell suspension was added to a 96-well plate. An appropriate amount of 10 mM DMSO solution of the compound to be tested was taken and diluted to a concentration of 2× test concentration with the medium. 50 μL/well was added to the cells in the 96-well plate. The plate was incubated in an incubator at 37° C. and 5% CO2 for 16 hours. The medium was DMEM (High glucose) containing 10% FBS. 2) After the cell incubation, 10 μL of cell culture supernatant was transferred to a 96-well plate. 90 μL/well of QUANTI-Blue detection solution was added, and the mixture was incubated at 37° C. for 3 hours. OD620 was read using a microplate reader.
3) The EC50 of the effect of the tested compound to stimulate hTLR8 was fitted by the GraphPad software log(agonist) vs. response—Variable slope four-parameter method.

THP1-defNLRP3 cells = assay: Agonistic effect on the expression of IL-1β in NLRP3 deficient THP1 cells (THP1-defNLRP3) after PMA-induced differentiation (HTRF); type: cell-based, human; conditions: Homo sapiens, THP-1; IL-1β level, PMA-differentiated NLRP3 deficient THP1 cells, 6 hours; highest test concentration 30 μM; read-out: hNLRP3 EC50 (μM) (THP-1defNLRP3)
Description: Experimental Example 2: Agonistic Effect of the Compound of the Invention on the Expression of IL-1β in NLRP3 Deficient THP1 Cells (THP1-defNLRP3 Cells) after PMA-Induced Differentiation
In this test, a HTRF detection method was used to test the effect of the compound of the invention on the level of IL-1β in THP1-defNLRP3 cells to evaluate the specificity of the agonistic effect of the compound on hNLRP3 inflammasome or hNLRP3 inflammasome pathway.
Reagents: as described in Experimental Example 1
Cell: THP1-defNLRP3 (InvivoGen)
Kit: IL-1β assay kit (CISBIO)
1) THP1-defNLRP3 cells in a logarithmic growth phase were seeded in a T75 culture flask at a density of 5×10^5 cells/well, and cultured in a cell incubator at 37° C., 5% CO2 for 24 hours, and then 1 μM PMA was used to induce THP1-defNLRP3 suspension cells to become adherent macrophages. The medium was RPMI 1640 containing 10% heat-inactivated FBS and 0.05 mM β-mercaptoethanol.
2) The cells were induced and cultured for 24 hours. Then the adherent cells were trypsinized and centrifuged at 1000 rpm for 5 min. The supernatant was removed, and the cells were resuspended to a density of 2×10^6 cells/mL in RPMI 1640 medium containing 2% heat-inactivated FBS. 50 μL/well of the cell resuspension was taken and spread on a 96-well plate such that the number of cells in each well was 1×10^5.
3) An appropriate amount of 10 mM DMSO solution of the compound to be tested was taken and diluted to a concentration of 2× test concentration with RPMI 1640 medium containing 2% heat-inactivated FBS. 50 μL/well of the dilution was added to the cells in the 96-well plate, and mixed well. The plate was incubated in a cell incubator at 37° C., 5% CO2 for 6 hours. The supernatant was collected, and the level of IL-1β was measured in accordance with the instructions of the IL-1β detection kit.
4) EC50 was fitted by the GraphPad software log(agonist) vs. response—Variable slope four-parameter method.

Row | Structure (SMILES) | EC50 (hTLR8) [µM] | EC50 (THP1-defNLRP3 cells) [µM]
1 | Nc1cc(N[C@H]2CC[C@H](O)C2)c2sc(-c3ccn[nH]3)cc2n1 [Compound 26, (1S,3S)-3-((5-amino-2-(1H-pyrazol-5-yl)thieno[3,2-b]pyridin-7-yl)amino)cyclopentanol] | > 100 | > 30
2 | Nc1cc(N[C@@H]2CC[C@@H](O)C2)c2sc(-c3ccn[nH]3)cc2n1 [Compound 30s, (1R,3R)-3-((5-amino-2-(1H-pyrazol-5-yl)thieno[3,2-b]pyridin-7-yl)amino)cyclopentanol hydrochloride] | > 100 | > 30
3 | Nc1cc(N[C@@H]2CC[C@H](O)C2)c2sc(-c3ccn[nH]3)cc2n1 [Compound 31, (1S,3R)-3-((5-amino-2-(1H-pyrazol-5-yl)thieno[3,2-b]pyridin-7-yl)amino)cyclopentanol] | > 100 | > 30
4 | C[C@H](O)CNc1cc(N)nc2cc(-c3ccn[nH]3)sc12 [Compound 33] | > 100 | > 30
5 | Nc1cc(NC2CC(O)C2)c2sc(-c3ccn[nH]3)cc2n1 (centres unmarked) [Compound 40, 3-((5-amino-2-(1H-pyrazol-5-yl)thieno[3,2-b]pyridin-7-yl)amino)cyclobutanol] | > 100 | > 30
6 | CN1CC[C@H](Nc2cc(N)nc3cc(-c4ccn[nH]4)sc23)C1 [Compound 51, (S)—N^7-(1-methylpyrrolidin-3-yl)-2-(1H-pyrazol-5-yl)thieno[3,2-b]pyridine-5,7-diamine] | > 100 | > 30
7 | CC(=O)NCCNc1cc(N)nc2cc(-c3ccn[nH]3)sc12 [Compound 52] | > 100 | > 30
8 | CC(=O)NCCCNc1cc(N)nc2cc(-c3ccn[nH]3)sc12 [Compound 53] | > 100 | > 30
9 | CN1CCN(CCCNc2cc(N)nc3cc(-c4ccn[nH]4)sc23)CC1 [Compound 54, N^7-(3-(4-methylpiperazin-1-yl)propyl)-2-(1H-pyrazol-5-yl)thieno[3,2-b]pyridine-5,7-diamine] | > 100 | > 30
10 | Nc1cc(NCCN2CCOCC2)c2sc(-c3ccn[nH]3)cc2n1 [Compound 55, N^7-(2-morpholinoethyl)-2-(1H-pyrazol-5-yl)thieno[3,2-b]pyridine-5,7-diamine] | > 100 | > 30
11 | CN1CCN(CCNc2cc(N)nc3cc(-c4ccn[nH]4)sc23)CC1 [Compound 57, N^7-(2-(4-methylpiperazin-1-yl)ethyl)-2-(1H-pyrazol-5-yl)thieno[3,2-b]pyridine-5,7-diamine] | > 100 | > 30
12 | Nc1cc(NCCCNC(=O)C2CC2)c2sc(-c3ccn[nH]3)cc2n1 [Compound 58] | > 100 | > 30
13 | Nc1cc(NCc2ccccn2)c2sc(-c3ccn[nH]3)cc2n1 [Compound 59, 2-(1H-pyrazol-5-yl)-N^7-(pyridin-2-ylmethyl)thieno[3,2-b]pyridine-5,7-diamine] | > 100 | > 30
14 | Cn1ccc(CNc2cc(N)nc3cc(-c4ccn[nH]4)sc23)n1 [Compound 60, N^7-(1-methyl-1H-pyrazol-3-yl)methyl-2-(1H-pyrazol-5-yl)thieno[3,2-b]pyridine-5,7-diamine] | > 100 | > 30
15 | Nc1cc(NC2CCOC2)c2sc(-c3ccn[nH]3)cc2n1 (centres unmarked) [Compound 61, 2-(1H-pyrazol-5-yl)-N^7-(tetrahydrofuran-3-yl)thieno[3,2-b]pyridine-5,7-diamine] | > 100 | > 30
16 | CC1CN(CCNc2cc(N)nc3cc(-c4ccn[nH]4)sc23)CC(C)O1 (centres unmarked) [Compound 62] | > 100 | > 30
17 | Cn1cnc(CNc2cc(N)nc3cc(-c4ccn[nH]4)sc23)c1 [Compound 63, N^7-(1-methyl-1H-imidazol-4-yl)methyl-2-(1H-pyrazol-5-yl)thieno[3,2-b]pyridine-5,7-diamine] | > 100 | > 30
18 | Nc1cc(NCCNC(=O)C2CC2)c2sc(-c3ccn[nH]3)cc2n1 [Compound 64] | > 100 | > 30
19 | CC(=O)N(C)CCNc1cc(N)nc2cc(-c3ccn[nH]3)sc12 [Compound 73, N-(2-((5-amino-2-(1H-pyrazol-5-yl)thieno[3,2-b]pyridin-7-yl)amino)ethyl)-N-methylethanamide] | > 100 | > 30
20 | CC(=O)N(C)CCCNc1cc(N)nc2cc(-c3ccn[nH]3)sc12 [Compound 74, N-(3-((5-amino-2-(1H-pyrazol-5-yl)thieno[3,2-b]pyridin-7-yl)amino)propyl)-N-methylacetamide] | > 100 | > 30
21 | CN(CCNc1cc(N)nc2cc(-c3ccn[nH]3)sc12)C(=O)C1CC1 [Compound 75, N-(2-((5-amino-2-(1H-pyrazol-5-yl)thieno[3,2-b]pyridin-7-yl)amino)ethyl)-N-methylcyclopropionamide] | > 100 | > 30
22 | CN(CCCNc1cc(N)nc2cc(-c3ccn[nH]3)sc12)C(=O)C1CC1 [Compound 76, N-(3-((5-amino-2-(1H-pyrazol-5-yl)thieno[3,2-b]pyridin-7-yl)amino)propyl)-N-methylcyclopropane formamide] | > 100 | > 30
23 | CCC(=O)N(C)CCNc1cc(N)nc2cc(-c3ccn[nH]3)sc12 [Compound 88, N-(2-((5-amino-2-(1H-pyrazol-5-yl)thieno[3,2-b]pyridin-7-yl)amino)ethyl)-N-methylpropionamide] | > 100 | > 30
24 | CN1CCC(Nc2cc(N)nc3cc(-c4ccn[nH]4)sc23)CC1 [Compound 89, N^7-(1-methylpiperidin-4-yl)-2-(1H-pyrazol-5-yl)thieno[3,2-b]pyridine-5,7-diamine] | > 100 | > 30
25 | Nc1cc(NCCCO)c2sc(-c3ccncc3)cc2n1 [Compound 90, 3-((5-amino-2-(pyridin-4-yl)thieno[3,2-b]pyridin-7-yl)amino)-1-propanol] | > 100 | > 30
